Assay results taken from patent publication US20200055871A1, “ACTIVATORS OF THE RETINOIC ACID INDUCIBLE GENE "RIG-I" PATHWAY AND METHODS OF USE THEREOF” (Kineta Immuno-Oncology LLC, priority 2018, published 2020).

How the values were obtained:
[1] = system: IRF3 signaling pathway in THP1-Lucia™ ISG cells; experiment: THP1-Lucia ISG reporter assay: induction of IRF3-dependent gene expression (secreted luciferase); type: cell-based, human; details: PMA-differentiated cells, 18 h after stimulation
Summary of the method: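 PMA-differentiated THP-1 reporter cells (ISRE/ISG54 promoter driving secreted luciferase), plus CRISPR IRF3−/− line, treated with compounds at 5–20 μM (mostly 10 μM). Luciferase measured 18 h later; values are fold increase over untreated background, binned from <2.4 to ≥40.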

[2] = system: IRF3-deficient THP1-Lucia™ ISG IRF3−/− cells; experiment: THP1-Lucia ISG IRF3−/− reporter assay (IRF3-deficient control cells); type: cell-based, human; details: compound 5 to 20 μM, 18 h
Experimental: The promoter was comprised of five IFN-stimulated response elements (ISRE) fused to an ISG54 minimal promoter which is unresponsive to NF-kB or AP-1 pathways. […] The IRF3-deficient THP1-Lucia™ ISG IRF3−/−reporter cell line was generated by CRISPR technology from the parent THP1-Lucia™ ISG reporter cell line.
THP1-Lucia™ ISG cells and IRF3-deficient THP1-Lucia™ ISG IRF3−/−cells were differentiated with PMA (100 ng/ml) and stimulated with compounds at the indicated concentrations (5 to 20 μM), positive control, or not treated (background). Luciferase secretion was quantified using the QUANTI-Luc luciferase assay system (InvivoGen) 18 h after stimulation. Data are shown as fold increase luciferase activity over background in Table 7 and represent the IRF3-dependent ISG54 promoter activity by the THP1-Lucia™ ISG cells in response to compounds. […] The fold increase of compounds (10 μM, *20 μM, **5 μM) induced IRF3 dependent luciferase activity is indicated as follows: “≠” indicates less than 2.4 fold increase; “+” indicates a 2.4-4.9 fold increase; “++” indicates a 5-9.9 fold increase; “+++” indicates a 10-19 fold increase; “++++” indicates a 20-39 fold increase; “+++++” indicates greater than or equal to 40 fold increase.

[3] = system: murine CT26 colon carcinoma cells; experiment: RIG-I dependent CXCL10 secretion by CT26 cells (ELISA); type: cell-based; details: supernatant 24 h after stimulation
Summary of the method: (§1)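 CT26 murine colon carcinoma cells, parental or CRISPR RIG-I−/−, seeded and grown 24 hr at 37° C, then treated with compounds at 10 μM, or at 5 or 20 μM for some. Secreted CXCL10 measured by ELISA in supernatants 24 h after treatment and reported in pg/mL bands.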

[4] = system: RIG-I deficient CT26 RIG-I−/− cells; experiment: CXCL10 secretion by RIG-I deficient CT26 RIG-I−/− cells (ELISA); type: cell-based, murine; details: compound 5 to 20 μM, 24 h; also: key: −: about 0 pg/mL of CXCL10, or below the level of quantitation
Summary of the method: as §1

[5] = system: murine CT26 colon carcinoma cells; experiment: Compound-induced immunogenic cell death: apoptosis (Annexin V) and calreticulin translocation by flow cytometry; type: cell-based; details: 18 h after treatment, dose titration, FIG. 1
Experimental: To determine if the RIG-I agonist compounds induce immunogenic cell death in cancer cells, induction of apoptosis and the translocation of calreticulin (CRT) to the cell surface in murine CT26 colon carcinoma cells were evaluated. The translocation of CRT occurs as part of a specific RIG-I dependent danger-signaling system, and the presence of CRT on the cell membrane promotes tumor antigen uptake by the dendritic cells and leads to the induction of an antigen-specific T cell response
The induction of apoptosis and the CRT translocation were measured by flow cytometry. […] Cells were harvested 18 h after treatment and then prepared for flow cytometry using an Annexin V staining kit (Biolegend) for quantification of apoptosis, an anti-CRT antibody (Abgent) for calreticulin translocation, and the Live/Dead-Violet staining kit (Thermofisher) for cell viability. Induction of apoptosis and translocation of calreticulin (CRT) to cell surface by live cells was determined by tri-color flow cytometry using FITC-labeled Annexin V, Live/Dead-iolet (LDV), and APC-anti-CRT. Apoptotic cells were defined as Annexin V^+ and calreticulin translocation to cell surface was quantified by mean fluorescent intensity (MFI) of calreticulin^+ live cells (CRT^+ LDV^−). […]

Compound	fold increase of IRF3-dependent luciferase activity over background, THP1 ISG ([1]; 10 μM compound)	fold increase of luciferase activity, THP1 ISG IRF3−/− [2]	CXCL10 secretion, CT26 ([3]; 20 μM compound (*))	CXCL10 secretion, CT26 RIG-I−/− [4]	CXCL10 secretion, CT26 ([3]; 10 μM compound)	fold increase of IRF3-dependent luciferase activity over background, THP1 ISG ([1]; 20 μM compound (*))	CXCL10 secretion, CT26 ([3]; 5 μM compound (**))	induction of immunogenic cell death (apoptosis, calreticulin translocation to cell surface) [5]	fold increase of IRF3-dependent luciferase activity over background, THP1 ISG ([1]; 5 μM compound (**))
O=C(Nc1cc2ccc3scnc3c2o1)c1cc2ccccc2cc1OCCN1CCOCC1 [Example 57, 3-[2-(morpholin-4-yl)ethoxy]-N-{12-oxa-5-thia-3-azatricyclo [7.3.0.0^2,^6]dodeca-1,3,6,8,10-pentaen-11-yl}naphthalene-2-carboxamide]	+++ (a 10-19 fold increase)	− (less than 0.5 fold above baseline was considered below the level of quantitation)	++* (200-399 pg/mL)	−					
O=C(Nc1nc2ccc3scnc3c2o1)c1cc2ccccc2cc1OCCN1CCOCC1 [Example 58, 3-[2-(morpholin-4-yl)ethoxy]-N-{3-oxa-10-thia-5,12-diazatricyclo [7.3.0.0^2,^6]dodeca-1,4,6,8,11-pentaen-4-yl}naphthalene-2-carboxamide]	+ (a 2.4-4.9 fold increase)	− (less than 0.5 fold above baseline was considered below the level of quantitation)		−	+ (100-199 pg/mL)				
O=C(Nc1nc2ccc3scnc3c2o1)c1cc2ccccc2cc1OCCCCN1CCOCC1 [Example 59, 3-[4-(morpholin-4-yl)butoxy]-N-{3-oxa-10-thia-5,12-diazatricyclo [7.3.0.0^2,^6]dodeca-1,4,6,8,11-pentaen-4-yl}naphthalene-2-carboxamide]	++ (a 5-9.9 fold increase)	− (less than 0.5 fold above baseline was considered below the level of quantitation)		−	+++++ (greater than or equal to 1600 pg/ml)				
Cn1c(C(=O)Nc2cc3ccc4scnc4c3s2)cc2ccccc21 [Example 60, N-{5,12-dithia-3-azatricyclo[7.3.0.0^2,^6]dodeca-1,3,6,8,10-pentaen-11-yl}-1-methyl-1H-indole-2-carboxamide]		− (less than 0.5 fold above baseline was considered below the level of quantitation)	+* (100-199 pg/mL)	−		+* (a 2.4-4.9 fold increase)			
O=C(Nc1cc2ccc3scnc3c2s1)c1cc2c(cc1OCCN1CCOCC1)OCO2 [Example 63, N-{5,12-dithia-3-azatricyclo[7.3.0.0^2,^6]dodeca-1,3,6,8,10-pentaen-11-yl}-6-[2-(morpholin-4-yl)ethoxy]-2H-1,3-benzodioxole-5-carboxamide]	≠ (less than 2.4 fold increase)	− (less than 0.5 fold above baseline was considered below the level of quantitation)		−	≠ (less than 100 pg/mL)				
O=C(Nc1cc2ccc3scnc3c2s1)c1cc2ccsc2cc1OCCCCN1CCOCC1 [Example 66, N-{5,12-dithia-3-azatricyclo[7.3.0.0^2,^6]dodeca-1,3,6,8,10-pentaen-11-yl}-6-[4-(morpholin-4-yl)butoxy]-1-benzothiophene-5-carboxamide]	+ (a 2.4-4.9 fold increase)	− (less than 0.5 fold above baseline was considered below the level of quantitation)		−	+++++ (greater than or equal to 1600 pg/ml)				
O=C(Nc1nc2ccc3[nH]cnc3c2s1)c1cc2ccccc2cc1OCCN1CCOCC1 [Example 72, 3-[2-(morpholin-4-yl)ethoxy]-N-{3-thia-5,10,12-triazatricyclo[7.3.0.0^2,^6]dodeca-1,4,6,8,11-pentaen-4-yl}naphthalene-2-carboxamide]	++ (a 5-9.9 fold increase)	− (less than 0.5 fold above baseline was considered below the level of quantitation)		−	+++ (400-799 pg/mL)				
N-(3-bromophenyl)-11-methyl-3,10-dithia-5,12-diazatricyclo[7.3.0.0^2,^6]dodeca-1,4,6,8,11-pentaene-4-carboxamide [Example 10]	+ (a 2.4-4.9 fold increase)	− (less than 0.5 fold above baseline was considered below the level of quantitation)		−	+++ (400-799 pg/mL)				
N-[11-(methylsulfanyl)-3,10-dithia-5,12-diazatricyclo[7.3.0.0^2,^6]dodeca-1,4,6,8,11-pentaen-4-yl]-3-[4-(morpholin-4-yl)butoxy]naphthalene-2-carboxamide [Example 37]	+++ (a 10-19 fold increase)	− (less than 0.5 fold above baseline was considered below the level of quantitation)		−	++++ (800 to 1599 pg/mL)				
N-{5,12-dithia-3-azatricyclo[7.3.0.0^2,^6]dodeca-1,3,6,8,10-pentaen-11-yl}-3-[2-(morpholin-4-yl)ethoxy]-[1,1′-biphenyl]-4-carboxamide [Example 61]	++++ (a 20-39 fold increase)	− (less than 0.5 fold above baseline was considered below the level of quantitation)		−			++** (200-399 pg/mL)		
N-{5,12-dithia-3-azatricyclo[7.3.0.0^2,^6]dodeca-1,3,6,8,10-pentaen-11-yl}-3-[4-(morpholin-4-yl)butoxy]-[1,1′-biphenyl]-4-carboxamide [Example 62]	+++ (a 10-19 fold increase)	− (less than 0.5 fold above baseline was considered below the level of quantitation)		−	++++ (800 to 1599 pg/mL)			induction of immunogenic cell death	
[N-(7-hydroxybenzo[1,2-d:3,4-d′]bis(thiazole)-2-yl)-3-(4-morpholinobutoxy)-2-naphthamide hydrochloride] [Example 44]		− (less than 0.5 fold above baseline was considered below the level of quantitation)		−	+++ (400-799 pg/mL)				++** (a 5-9.9 fold increase)
